Values joined by “and” are separate entries in the source; they are usually repeats but may differ in a detail not shown here. Equal values may be shown once.
What was measured:
[1] = tested on: SF-295 (glioma); test: in vivo efficacy, SF-295 (glioma) subcutaneous tumor model; design: species or system athymic mice; settings: for BW Loss / Growth Delay % [(T − C)/C] / Optimal % T/C / value in parentheses in Growth Delay column / tumor free (tf): SF-295, Early-SC, intravenous
Procedure: (§1) NSC 694501 was evaluated for in vivo efficacy in athymic mice bearing 8 subcutaneous tumor models: LOX and UACC-62 (melanoma), OVCAR-3 and OVCAR-5 (ovarian ca), MDA-MB-435 (breastca), SF-295 and C-6 (glioma), and LS-174T (colonca). The models were selected on the basis of hollow fiber assays and in vitro time course assays.
(§2) A qDx5 schedule conferred better efficacy than a q4Dx3 schedule in each of the 4 models tested on two schedules. NSC 694501 was active over a wide dosage range in athymic mice using compound prepared fresh just prior to injection in 1% EtOH vehicle: On a qDx5 schedule, the maximum tolerated dose was approximately 120 μg/kg/dose and the minimum effective dose in one of the most sensitive models (SF-295) was 16 μg/kg/dose.

[2] = as above; design: species or system athymic mice; settings: athymic, mouse, in vivo, SF-295, Early-SC
Procedure: as §1, §2

[3] = tested on: C-6 (rat glioma); test: in vivo efficacy, C-6 (rat glioma) in nude rats; settings: i.v.; for BW Loss / Growth Delay % [(T − C)/C] / Optimal % T/C: C-6, Early-SC, nude rats
[4] = in vivo efficacy, summary over 8 subcutaneous tumor models; design: species or system athymic mice; settings: mouse, in vivo, intravenous; athymic mice, qDx5 schedule, prepared fresh in 1% EtOH vehicle; read-out: maximum tolerated dose
Procedure: as §1, §2

[5] = tested on: 8 subcutaneous tumor models; test: as above; design: species or system athymic mice
Procedure: as §1, §2

[6] = tested on: LS-174 (human colon cancer); test: in vivo efficacy, LS-174 (human colon cancer) in nude rats; settings: i.v.; for BW Loss / Growth Delay % [(T − C)/C] / Optimal % T/C: LS-174, Early-SC, nude rats
[7] = in vivo efficacy, UACC-62 (melanoma) subcutaneous tumor model; design: species or system athymic mice; settings: athymic, mouse, in vivo, UACC-62, Early-SC
Procedure: as §1, §2

[8] = tested on: UACC-62 (melanoma); test: as above; design: species or system athymic mice; settings: UACC-62, Early-SC, intravenous
Procedure: as §1, §2

[9] = in vivo efficacy, OVCAR-3 (ovarian ca) subcutaneous tumor model; design: species or system athymic mice; settings: athymic, mouse, in vivo, OVCAR-3, Early-SC
Procedure: as §1, §2

[10] = tested on: OVCAR-3 (ovarian ca); test: as above; design: species or system athymic mice; settings: OVCAR-3, Early-SC, intravenous
Procedure: as §1, §2

## C=C1C[C@H]2C=Nc3cc(OCCCOc4cc5c(cc4OC)C(=O)N4CC(=C)C[C@H]4C=N5)c(OC)cc3C(=O)N2C1 [NSC 694501]
[1]; Q4D X3, 0.11 mg/kg/dose
  BW Loss: 0.1%
  Growth Delay % [(T − C)/C]: 60%
  Optimal % T/C: 10%
  value in parentheses in Growth Delay column: 0.0 L
[1]; Q4D X3, 0.16 mg/kg/dose
  BW Loss: 4.3%
  Growth Delay % [(T − C)/C]: 103%
  Optimal % T/C: 3%
  value in parentheses in Growth Delay column: 0.9 L
[1]; Q4D X3, 0.24 mg/kg/dose
  BW Loss: 10.2%
  Growth Delay % [(T − C)/C]: 227%
  Optimal % T/C: 1 (1 tf) %
  tumor free (tf): 1 (1 tf)
  value in parentheses in Growth Delay column: 3.2 L
[1]; Q4D X3, <0.30 mg/kg/dose
  BW Loss: 24.0%
[1]; Q4D X3, <0.30 mg/kg/dose, T/C unevaluable
  tumor free (tf): ue (2 tf)
[1]; QD X5, 0.016 mg/kg/dose
  BW Loss: 0.0%
  Growth Delay % [(T − C)/C]: 31%
  Optimal % T/C: 33%
[1]; QD X5, 0.024 mg/kg/dose
  BW Loss: 3.6%
  Growth Delay % [(T − C)/C]: 61%
  Optimal % T/C: 12%
[1]; QD X5, 0.036 mg/kg/dose
  BW Loss: 3.5%
  Growth Delay % [(T − C)/C]: 69%
  Optimal % T/C: 14%
[1]; QD X5, 0.054 mg/kg/dose
  BW Loss: 4.7% and 2.8%
  Growth Delay % [(T − C)/C]: 165% and 206%
  Optimal % T/C: 2% and 0%
  tumor free (tf): 1 tf
  value in parentheses in Growth Delay column: 2.6 L and 3.0 L
[1]; QD X5, 0.08 mg/kg/dose
  BW Loss: 0.0%
  Growth Delay % [(T − C)/C]: 131%
  Optimal % T/C: 3%
  value in parentheses in Growth Delay column: 2.0 L
[1]; QD X5, 0.12 mg/kg/dose
  BW Loss: 7.5% and 5.3%
  Growth Delay % [(T − C)/C]: 241% and 196%
  Optimal % T/C: 4 (4 tf) % and 2 (2 tf) %
  tumor free (tf): 4 (4 tf) and 2 (2 tf)
  value in parentheses in Growth Delay column: 3.1 L and 3.2 L
[1]; SF-295, qDx5 schedule, athymic mice
  minimum effective dose: 16 μg/kg/dose
[2]; Q4D X3, intravenous
  MTD at 9 days: < 0.3 mg/kg
[2]; QD X5, intravenous
  MTD at 5 days: 0.12 mg/kg
[3]; QD X5, 0.018 mg/kg
  BW Loss: 0.0%
  Growth Delay % [(T − C)/C]: 13%
  Optimal % T/C: 56%
[3]; QD X5, 0.027 mg/kg
  BW Loss: 6.3%
  Growth Delay % [(T − C)/C]: 20%
  Optimal % T/C: 47%
[3]; QD X5, 0.040 mg/kg
  BW Loss: 0.8%
  Growth Delay % [(T − C)/C]: 49%
  Optimal % T/C: 24%
[3]; nude rats bearing C-6, 27 and 40 μg/kg/dose, qDx5
  tolerability and efficacy: well tolerated and efficacious
[4]
  MTD at 5 days: ~0.12 mg/kg
[5]; i.v bolus
  cell kill: multi-log cell kill in 4 models
  growth delays: significant growth delays in 7 models
[5]; i.v bolus drug delivery
  activity in tumor models: active in each of the 8 tumor models
[6]; QD X5, 0.018 mg/kg
  BW Loss: 0.0%
  Growth Delay % [(T − C)/C]: 43%
  Optimal % T/C: 41%
[6]; QD X5, 0.027 mg/kg
  BW Loss: 2.2%
  Growth Delay % [(T − C)/C]: 93%
  Optimal % T/C: 21%
[6]; QD X5, 0.040 mg/kg
  BW Loss: 1.4%
  Growth Delay % [(T − C)/C]: 83%
  Optimal % T/C: 17%
[6]; nude rats bearing LS-174, 27 and 40 μg/kg/dose, qDx5
  tolerability and efficacy: well tolerated and efficacious
[7]; Q4D X3, intravenous
  MTD at 9 days: 0.45 mg/kg
[7]; QD X5, intravenous
  MTD at 5 days: 0.054 mg/kg
[8]; Q4D X3, .45 mg/kg/dose
  BW Loss: 20.9%
  Growth Delay % [(T − C)/C]: 43%
  Optimal % T/C: 28%
[8]; QD X5, 0.054 mg/kg/dose
  BW Loss: 20.2%
  Growth Delay % [(T − C)/C]: 150%
  Optimal % T/C: 26%
  value in parentheses in Growth Delay column: 0.9 L
[9]; Q4D X3, intravenous
  MTD at 9 days: 0.45 mg/kg
[9]; QD X5, intravenous
  MTD at 5 days: 0.27 mg/kg
[10]; Q4D X3, 0.45 mg/kg/dose
  BW Loss: 6.6% and 13.9%
  Growth Delay % [(T − C)/C]: 73% and 55%
  Optimal % T/C: 20% and 10%
[10]; QD X5, .27 mg/kg/dose
  BW Loss: 7.9%
  Growth Delay % [(T − C)/C]: 114%
  Optimal % T/C: 9%
  value in parentheses in Growth Delay column: 1.9 L

— patent US7834005B2, “Pyrrolobenzodiazepine derivatives, compositions comprising the same and methods related thereto” (The United States of America as represented by the …, priority 2003, dated 2010)
